Measurements published in paper PMC6688997 (Nature Communications, 2019).

Legend:
[1] = Body weight of U-118 MG xenograft mice; type: in vivo, mouse; conditions: for Body Weight Change(%) (average / SD): N 5
PKACβ = PKACβ (Homo sapiens, UniProt P22694); assay: Kinase assay, ATP Km; type: biochemical
CK1γ2 = CK1γ2 (Homo sapiens, UniProt P78368); assay: Kinase assay, ATP Km; type: biochemical
SGK3 = molecular target: T1, SGK3 (Homo sapiens, UniProt Q96BR1); assay: Kinase assay, ATP Km; type: biochemical
T1 construct: purchased Carna Biosciences

p38δ = p38δ (Homo sapiens, UniProt O15264); assay: Kinase assay, ATP Km; type: biochemical
RSK1 = molecular target: T2, RSK1 (Homo sapiens, UniProt Q15418); assay: Kinase assay, ATP Km; type: biochemical
T2 construct: purchased Carna Biosciences

NEK9 = molecular target: T3, NEK9 (Homo sapiens, UniProt Q8TD19); assay: Kinase assay, ATP Km; type: biochemical
T3 construct: purchased Carna Biosciences

NDR1 = molecular target: T4, NDR1 (Homo sapiens, UniProt Q15208); assay: Kinase assay, ATP Km; type: biochemical
T4 construct: purchased Carna Biosciences

[2] = Body weight of KM12 xenograft mice; type: in vivo, mouse; conditions: ≥50 mg/kg
SRPK1 = molecular target: T5, SRPK1 (Homo sapiens, UniProt Q96SB4); assay: Kinase assay, ATP Km; type: biochemical
T5 construct: purchased Carna Biosciences

skMLCK = skMLCK (Homo sapiens, UniProt Q9H1R3); assay: Kinase assay, ATP Km; type: biochemical
EPHA1 = EPHA1 (Homo sapiens, UniProt P21709); assay: Kinase assay, ATP Km; type: biochemical
PDGFRα = molecular target: T6, PDGFRα (Homo sapiens, UniProt P16234); assay: Kinase assay, ATP Km; type: biochemical
T6 construct: purchased Carna Biosciences

[3] = Body weight of CTG-0848 PDX mice; type: in vivo, mouse; parameters: Body weight change (Supp Figure S5b), group average: unit not given here

EPHA1, sequence (P21709 26-976): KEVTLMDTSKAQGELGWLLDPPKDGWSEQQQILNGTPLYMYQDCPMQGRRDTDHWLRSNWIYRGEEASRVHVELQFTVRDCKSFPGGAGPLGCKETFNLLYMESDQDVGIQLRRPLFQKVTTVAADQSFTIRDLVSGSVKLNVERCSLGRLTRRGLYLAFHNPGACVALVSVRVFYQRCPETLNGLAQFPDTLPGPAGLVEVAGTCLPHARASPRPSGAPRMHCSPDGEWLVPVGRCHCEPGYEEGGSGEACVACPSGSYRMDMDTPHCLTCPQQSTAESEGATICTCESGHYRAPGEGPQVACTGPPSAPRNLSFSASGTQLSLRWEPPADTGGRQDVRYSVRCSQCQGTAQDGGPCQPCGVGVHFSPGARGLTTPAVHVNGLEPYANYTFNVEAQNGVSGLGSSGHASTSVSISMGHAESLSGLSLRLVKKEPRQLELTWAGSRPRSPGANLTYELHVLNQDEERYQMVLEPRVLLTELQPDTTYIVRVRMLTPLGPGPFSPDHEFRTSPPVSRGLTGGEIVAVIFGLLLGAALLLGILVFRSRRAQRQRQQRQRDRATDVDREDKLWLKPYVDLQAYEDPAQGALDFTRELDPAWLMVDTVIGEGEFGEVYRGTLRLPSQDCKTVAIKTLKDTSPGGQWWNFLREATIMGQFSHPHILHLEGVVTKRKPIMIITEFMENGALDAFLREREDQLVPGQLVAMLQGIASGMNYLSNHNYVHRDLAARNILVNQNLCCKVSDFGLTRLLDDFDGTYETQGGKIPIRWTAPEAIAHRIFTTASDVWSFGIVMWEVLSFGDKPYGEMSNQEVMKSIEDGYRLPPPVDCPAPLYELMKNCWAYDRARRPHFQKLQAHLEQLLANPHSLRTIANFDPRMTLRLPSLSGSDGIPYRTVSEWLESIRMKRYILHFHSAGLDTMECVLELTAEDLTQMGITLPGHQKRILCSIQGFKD
p38δ, sequence (O15264 whole entry): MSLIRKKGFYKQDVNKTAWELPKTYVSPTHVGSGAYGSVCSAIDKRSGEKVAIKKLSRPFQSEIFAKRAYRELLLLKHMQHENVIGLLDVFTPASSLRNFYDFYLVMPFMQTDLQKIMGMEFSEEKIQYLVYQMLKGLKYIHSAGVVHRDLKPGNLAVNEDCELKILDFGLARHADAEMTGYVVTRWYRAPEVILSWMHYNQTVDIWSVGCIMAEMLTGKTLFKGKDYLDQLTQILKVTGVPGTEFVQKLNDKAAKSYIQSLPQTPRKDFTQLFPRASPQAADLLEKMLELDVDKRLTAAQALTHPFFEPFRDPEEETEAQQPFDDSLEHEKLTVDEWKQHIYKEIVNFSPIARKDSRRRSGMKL
T2 sequence (Q15418 whole entry): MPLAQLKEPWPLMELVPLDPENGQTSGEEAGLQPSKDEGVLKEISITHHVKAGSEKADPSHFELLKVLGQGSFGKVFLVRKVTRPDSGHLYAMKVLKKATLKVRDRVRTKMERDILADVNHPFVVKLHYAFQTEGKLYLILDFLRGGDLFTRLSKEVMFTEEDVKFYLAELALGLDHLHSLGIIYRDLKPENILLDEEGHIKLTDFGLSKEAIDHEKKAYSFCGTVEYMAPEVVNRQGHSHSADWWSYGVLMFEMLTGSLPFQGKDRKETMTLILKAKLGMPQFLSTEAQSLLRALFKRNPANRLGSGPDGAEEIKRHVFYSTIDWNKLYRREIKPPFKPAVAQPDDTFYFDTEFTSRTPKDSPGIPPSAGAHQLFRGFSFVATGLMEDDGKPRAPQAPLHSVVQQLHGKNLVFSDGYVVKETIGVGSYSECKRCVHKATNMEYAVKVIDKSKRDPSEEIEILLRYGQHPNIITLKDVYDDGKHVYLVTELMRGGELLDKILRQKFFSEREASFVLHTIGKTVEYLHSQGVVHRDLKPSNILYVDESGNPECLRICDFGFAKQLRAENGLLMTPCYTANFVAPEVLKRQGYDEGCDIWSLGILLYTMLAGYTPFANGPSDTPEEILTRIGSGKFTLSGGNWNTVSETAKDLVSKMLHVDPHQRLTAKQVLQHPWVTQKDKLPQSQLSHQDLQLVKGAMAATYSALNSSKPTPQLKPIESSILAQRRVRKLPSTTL
CK1γ2, sequence (P78368 whole entry): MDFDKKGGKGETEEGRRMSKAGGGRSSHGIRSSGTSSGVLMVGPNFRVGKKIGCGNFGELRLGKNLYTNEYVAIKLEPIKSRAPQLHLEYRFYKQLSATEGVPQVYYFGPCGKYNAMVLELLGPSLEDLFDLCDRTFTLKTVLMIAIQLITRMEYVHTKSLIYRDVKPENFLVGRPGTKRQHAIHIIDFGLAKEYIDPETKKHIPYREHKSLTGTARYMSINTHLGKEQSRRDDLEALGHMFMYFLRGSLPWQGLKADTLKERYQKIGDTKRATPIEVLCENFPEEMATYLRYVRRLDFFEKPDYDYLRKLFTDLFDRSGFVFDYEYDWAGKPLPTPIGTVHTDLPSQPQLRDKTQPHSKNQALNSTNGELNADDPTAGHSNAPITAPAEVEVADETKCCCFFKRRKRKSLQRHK
T4 sequence (Q15208 whole entry): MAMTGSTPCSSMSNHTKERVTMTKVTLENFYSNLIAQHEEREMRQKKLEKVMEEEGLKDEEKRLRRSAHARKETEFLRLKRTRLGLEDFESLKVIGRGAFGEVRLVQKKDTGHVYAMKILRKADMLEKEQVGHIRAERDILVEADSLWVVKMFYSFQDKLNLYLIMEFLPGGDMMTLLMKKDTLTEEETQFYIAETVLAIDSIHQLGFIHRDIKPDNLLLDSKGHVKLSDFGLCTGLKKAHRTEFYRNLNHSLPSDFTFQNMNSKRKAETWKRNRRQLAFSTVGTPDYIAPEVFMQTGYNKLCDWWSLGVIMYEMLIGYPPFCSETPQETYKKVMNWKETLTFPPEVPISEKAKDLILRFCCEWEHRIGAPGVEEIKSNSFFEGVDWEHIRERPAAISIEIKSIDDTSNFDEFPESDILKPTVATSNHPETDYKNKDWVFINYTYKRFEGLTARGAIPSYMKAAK
T6 sequence (P16234 24-1089): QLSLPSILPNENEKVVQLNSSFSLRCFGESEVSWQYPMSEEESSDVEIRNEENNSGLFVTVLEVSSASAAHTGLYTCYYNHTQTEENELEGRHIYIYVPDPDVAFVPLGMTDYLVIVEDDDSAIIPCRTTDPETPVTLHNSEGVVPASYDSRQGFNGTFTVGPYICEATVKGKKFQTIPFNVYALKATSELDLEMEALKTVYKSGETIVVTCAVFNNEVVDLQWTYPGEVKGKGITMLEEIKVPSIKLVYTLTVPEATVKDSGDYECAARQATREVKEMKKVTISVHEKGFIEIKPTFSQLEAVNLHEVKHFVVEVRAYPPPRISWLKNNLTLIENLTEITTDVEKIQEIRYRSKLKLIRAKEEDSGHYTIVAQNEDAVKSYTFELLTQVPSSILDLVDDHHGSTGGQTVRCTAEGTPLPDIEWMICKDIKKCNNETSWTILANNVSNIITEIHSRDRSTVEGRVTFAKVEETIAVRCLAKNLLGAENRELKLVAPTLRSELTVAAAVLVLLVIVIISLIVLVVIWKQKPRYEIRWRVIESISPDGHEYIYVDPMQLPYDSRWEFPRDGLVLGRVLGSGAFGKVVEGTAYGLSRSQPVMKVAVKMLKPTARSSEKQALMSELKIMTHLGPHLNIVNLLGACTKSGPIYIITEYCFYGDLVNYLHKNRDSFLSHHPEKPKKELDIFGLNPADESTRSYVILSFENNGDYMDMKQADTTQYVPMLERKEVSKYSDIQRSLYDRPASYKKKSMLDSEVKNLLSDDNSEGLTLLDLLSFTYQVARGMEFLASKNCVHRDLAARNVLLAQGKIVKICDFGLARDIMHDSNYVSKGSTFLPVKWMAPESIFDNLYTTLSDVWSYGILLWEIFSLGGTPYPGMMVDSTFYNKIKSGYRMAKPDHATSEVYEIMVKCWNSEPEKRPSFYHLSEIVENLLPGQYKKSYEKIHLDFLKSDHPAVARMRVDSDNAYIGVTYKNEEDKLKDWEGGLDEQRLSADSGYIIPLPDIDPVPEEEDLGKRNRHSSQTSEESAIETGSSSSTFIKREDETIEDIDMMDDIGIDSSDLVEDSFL
T1 sequence (Q96BR1 whole entry): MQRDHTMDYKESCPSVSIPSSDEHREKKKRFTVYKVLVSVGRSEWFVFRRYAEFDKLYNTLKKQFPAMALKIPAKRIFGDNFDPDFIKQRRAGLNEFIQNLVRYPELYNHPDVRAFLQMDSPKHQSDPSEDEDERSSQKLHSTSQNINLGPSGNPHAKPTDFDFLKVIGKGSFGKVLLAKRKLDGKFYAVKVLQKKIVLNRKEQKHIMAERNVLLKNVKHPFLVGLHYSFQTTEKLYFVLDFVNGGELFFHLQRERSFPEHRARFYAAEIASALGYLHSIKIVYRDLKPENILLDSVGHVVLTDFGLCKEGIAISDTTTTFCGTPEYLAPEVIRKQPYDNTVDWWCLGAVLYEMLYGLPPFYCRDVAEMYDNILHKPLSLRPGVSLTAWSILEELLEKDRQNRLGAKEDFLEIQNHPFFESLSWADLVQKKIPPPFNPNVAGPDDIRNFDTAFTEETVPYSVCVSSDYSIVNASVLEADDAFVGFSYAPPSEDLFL

C[C@@H](N)COc1ccc(-c2cnc3ccc(N[C@H](C)c4cccc(F)c4)nn23)cc1.O=C(O)CCCCC(=O)O [DS-6051b]
Body Weight Change(%) (average / SD) ([1]; 50 mg/kg, day 15): 3.5% | Body Weight Change(%) (average / SD) ([1]; 50 mg/kg, day 16): 4.9% | Body Weight Change(%) (average / SD) ([1]; 50 mg/kg, day 17): 4.4% | Body Weight Change(%) (average / SD) ([1]; 50 mg/kg, day 18): 5.5% | Body Weight Change(%) (average / SD) ([1]; 100 mg/kg, day 0): 0.0% | Body Weight Change(%) (average / SD) ([1]; 100 mg/kg, day 1): -0.7% | Body Weight Change(%) (average / SD) ([1]; 100 mg/kg, day 2): 2.0% | Body Weight Change(%) (average / SD) ([1]; 100 mg/kg, day 3): 2.9% | Body Weight Change(%) (average / SD) ([1]; 100 mg/kg, day 4): 3.6% | Body Weight Change(%) (average / SD) ([1]; 100 mg/kg, day 5): 4.8% | Body Weight Change(%) (average / SD) ([1]; 100 mg/kg, day 6): 3.7% | Body Weight Change(%) (average / SD) ([1]; 100 mg/kg, day 7): 7.0% | Body Weight Change(%) (average / SD) ([1]; 100 mg/kg, day 8): 5.7% | Body Weight Change(%) (average / SD) ([1]; 100 mg/kg, day 9): 5.0% | Body Weight Change(%) (average / SD) ([1]; 100 mg/kg, day 10): 4.2% | Body Weight Change(%) (average / SD) ([1]; 100 mg/kg, day 11): 4.6% | Body Weight Change(%) (average / SD) ([1]; 100 mg/kg, day 12): 5.5% | Body Weight Change(%) (average / SD) ([1]; 100 mg/kg, day 13): 4.1% | Body Weight Change(%) (average / SD) ([1]; 100 mg/kg, day 14): 5.1% | Body Weight Change(%) (average / SD) ([1]; 100 mg/kg, day 15): 7.2% | Body Weight Change(%) (average / SD) ([1]; 100 mg/kg, day 16): 8.9% | Body Weight Change(%) (average / SD) ([1]; 100 mg/kg, day 17): 8.0% | Body Weight Change(%) (average / SD) ([1]; 100 mg/kg, day 18): 7.6% | Body Weight Change(%) (average / SD) ([1]; 200 mg/kg, day 4): 0.8% | Body Weight Change(%) (average / SD) ([1]; 200 mg/kg, day 5): 0.5% | Body Weight Change(%) (average / SD) ([1]; 200 mg/kg, day 6): 1.7% | Body weight loss ([1]; ≥25 mg/kg): without significant body weight loss | inhibition at 0.04 µM (PKACβ): -3% | inhibition at 0.04 µM (CK1γ2): -0.8% | inhibition at 0.04 µM (SGK3): 3.6% | inhibition at 0.04 µM (p38δ): 6.2% | inhibition at 0.04 µM (RSK1): 5.6% | inhibition at 0.04 µM (NEK9): 1.5% | inhibition at 0.04 µM (NDR1): 51.2% | Body weight loss [2]: without significant body weight loss | inhibition at 0.04 µM (SRPK1): -0.0643% | inhibition at 0.04 µM (skMLCK): 4.6% | inhibition at 0.04 µM (EPHA1): 79.2% | inhibition at 0.04 µM (PDGFRα): 67% | Body weight change (Supp Figure S5b), group average ([3]; DS-6051b 10 mg/kg, day 0): 0.0 | Body weight change (Supp Figure S5b), group average ([3]; DS-6051b 10 mg/kg, day 4): 1.0 | Body weight change (Supp Figure S5b), group average ([3]; DS-6051b 10 mg/kg, day 7): -0.4 | Body weight change (Supp Figure S5b), group average ([3]; DS-6051b 10 mg/kg, day 11): 0.9 | Body weight change (Supp Figure S5b), group average ([3]; DS-6051b 10 mg/kg, day 14): -0.56 | Body weight change (Supp Figure S5b), group average ([3]; DS-6051b 10 mg/kg, day 18): 1.2 | Body weight change (Supp Figure S5b), group average ([3]; DS-6051b 10 mg/kg, day 21): 0.7 | Body weight change (Supp Figure S5b), group average ([3]; DS-6051b 10 mg/kg, day 26): 1.2 | Body weight change (Supp Figure S5b), group average ([3]; DS-6051b 10 mg/kg, day 28): 7.1 | Body weight change (Supp Figure S5b), group average ([3]; DS-6051b 30 mg/kg, day 0): 0.0 | Body weight change (Supp Figure S5b), group average ([3]; DS-6051b 30 mg/kg, day 4): 1.8 | Body weight change (Supp Figure S5b), group average ([3]; DS-6051b 30 mg/kg, day 7): -0.32 | Body weight change (Supp Figure S5b), group average ([3]; DS-6051b 30 mg/kg, day 11): 0.8 | Body weight change (Supp Figure S5b), group average ([3]; DS-6051b 30 mg/kg, day 14): -0.5 | Body weight change (Supp Figure S5b), group average ([3]; DS-6051b 30 mg/kg, day 18): 1.7 | Body weight change (Supp Figure S5b), group average ([3]; DS-6051b 30 mg/kg, day 21): 2.2 | Body weight change (Supp Figure S5b), group average ([3]; DS-6051b 30 mg/kg, day 26): -0.07 | Body weight change (Supp Figure S5b), group average ([3]; DS-6051b 30 mg/kg, day 28): 5.1 | Body weight change (Supp Figure S5b), group average ([3]; DS-6051b 100 mg/kg, day 0): 0.0 | Body weight change (Supp Figure S5b), group average ([3]; DS-6051b 100 mg/kg, day 4): 0.53 | Body weight change (Supp Figure S5b), group average ([3]; DS-6051b 100 mg/kg, day 7): 0.23 | Body weight change (Supp Figure S5b), group average ([3]; DS-6051b 100 mg/kg, day 11): 1.6 | Body weight change (Supp Figure S5b), group average ([3]; DS-6051b 100 mg/kg, day 14): 0.18 | Body weight change (Supp Figure S5b), group average ([3]; DS-6051b 100 mg/kg, day 18): 4.3 | Body weight change (Supp Figure S5b), group average ([3]; DS-6051b 100 mg/kg, day 21): 2.5 | Body weight change (Supp Figure S5b), group average ([3]; DS-6051b 100 mg/kg, day 26): 0.66 | Body weight change (Supp Figure S5b), group average ([3]; DS-6051b 100 mg/kg, day 28): 4.5 | Body weight loss ([3]; ≥10 mg/kg): without significant body weight loss
